# Data: patent publication US20250320213A1, “Nitrogen-Containing Heterocyclic Compounds” (Pfizer Inc., priority 2024, published 2025)
# Read-outs that look alike come from different tables or passages of the source.
# Key:
# STAT6 = molecular target: T1, STAT6 (Homo sapiens, UniProt P42226); assay: STAT6 Reporter Luciferase Assay (IL-13 stimulated HaCaT keratinocyte NanoLuc reporter cells); assay type: cell-based; settings: read-out: Reporter EC50
# T1 construct: stably transfected HaCaT keratinocyte cell line, which expresses NanoLuc luciferase reporter gene under the transcriptional control of the STAT6 responsive promoter; endogenous in cells; host or cells: HaCaT keratinocyte reporter cell line (stably transfected with a NanoLuc reporter)
# T1 sequence (P42226 1-847): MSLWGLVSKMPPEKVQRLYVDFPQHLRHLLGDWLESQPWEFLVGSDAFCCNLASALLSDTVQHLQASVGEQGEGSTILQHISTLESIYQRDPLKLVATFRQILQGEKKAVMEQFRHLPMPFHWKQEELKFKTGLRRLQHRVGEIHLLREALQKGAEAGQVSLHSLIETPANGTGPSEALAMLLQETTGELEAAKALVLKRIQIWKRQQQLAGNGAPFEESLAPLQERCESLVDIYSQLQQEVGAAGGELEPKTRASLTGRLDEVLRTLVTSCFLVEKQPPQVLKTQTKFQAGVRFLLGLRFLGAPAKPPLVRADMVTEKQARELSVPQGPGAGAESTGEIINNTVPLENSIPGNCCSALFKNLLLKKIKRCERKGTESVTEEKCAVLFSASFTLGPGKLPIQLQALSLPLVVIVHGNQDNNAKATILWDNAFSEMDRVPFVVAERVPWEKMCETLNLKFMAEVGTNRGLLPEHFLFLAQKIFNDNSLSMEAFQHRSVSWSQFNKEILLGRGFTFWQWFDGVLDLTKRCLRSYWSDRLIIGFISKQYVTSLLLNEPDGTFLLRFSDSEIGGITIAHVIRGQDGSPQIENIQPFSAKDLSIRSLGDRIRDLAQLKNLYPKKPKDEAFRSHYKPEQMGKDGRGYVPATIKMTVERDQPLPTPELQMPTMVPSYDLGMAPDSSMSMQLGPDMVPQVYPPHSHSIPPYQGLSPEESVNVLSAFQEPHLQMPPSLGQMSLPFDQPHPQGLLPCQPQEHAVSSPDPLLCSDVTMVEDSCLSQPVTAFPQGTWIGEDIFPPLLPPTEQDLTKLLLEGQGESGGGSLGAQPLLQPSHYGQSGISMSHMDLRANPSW
# Method in brief: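 Compounds were tested as 11-point, 4-fold series in duplicate, applied for 2 h at 37 °C in low-serum (2% FBS) DMEM. The cells were a stable HaCaT line with NanoLuc under a STAT6-responsive IL-13Ra2 promoter. After 4 h with 0.12 nM IL-13, Nano-Glo luminescence was measured.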
# [1] = tested on: CCL17 secretion in peripheral human whole blood; assay: Human Whole Blood (HWB) CCL17 TR-FRET Assay (IL-13 stimulated CCL17 secretion); assay type: cell-based
# Method in brief: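 Measured here: CCL17 in serum by TR-FRET (665/615 nm) after overnight (16 h) room-temperature detection. The blood, heparinized and compound-treated for 2 h, received IL-13 at 10 ng/mL final and was cultured 48 h at 37 °C.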
# [2] = IL-13 stimulated HaCaT STAT6 NanoLuc reporter cells
# [3] = Homo sapiens, 48 h, human whole blood, IL-13 stimulated
# [4] = STAT6 NanoLuc luciferase reporter, IL-13 stimulated HaCaT keratinocyte cells
# [5] = Homo sapiens, 48 h, inhibition of CCL17 secretion in human whole blood, 10 ng/mL IL13, 48 hours
# [6] = human whole blood, IL-13 stimulated, 48 hours
# [7] = inhibition of CCL17 secretion in human whole blood, 10 ng/mL IL13, 48 hours
Compound,EC50 (STAT6; [2]) [nM],"IC50 [1, 3] [nM]",also measured
"C[C@H]1CN(c2ccc(C(=O)N(C)C)cn2)Cc2c(C(=O)NCc3ccc(NC(=O)N(C)C)cc3)nn(C3(C)CC3)c21 (single isomer, unassigned) [Example 285]",1,7,
"CCn1nc(C(=O)NCc2ccc(C(=O)NC)cc2)c2c1[C@@H](C)CN(c1ccc(N3CCCC3=O)cn1)C2 [Example 388, (S)-1-ethyl-7-methyl-N-(4-(methylcarbamoyl)benzyl)-5-(5-(2-oxopyrrolidin-1-yl)pyridin-2-yl)-4,5,6,7-tetrahydro-1H-pyrazolo[4,3-c]pyridine-3-carboxamide]",8,29,
"CC(C)n1nc(C(=O)NCc2ccc(NC(=O)N3CCN(C)CC3)cc2)c2c1CCN(c1ccc(C(=O)N(C)C)cn1)C2 [Example 177, 5-(5-(dimethylcarbamoyl)pyridin-2-yl)-1-isopropyl-N-(4-(4-methylpiperazine-1-carboxamido)benzyl)-4,5,6,7-tetrahydro-1H-pyrazolo[4,3-c]pyridine-3-carboxamide]",,,"EC50 (STAT6; [4]): 8 nM; IC50 [1, 5]: 51 nM"
"CC1CN(c2ccc(-c3nccn3C)cn2)Cc2c(C(=O)NCc3ccc(NC(=O)N(C)C)cc3)nn(C)c21 (single isomer, unassigned) [Example 204, rel-(R or S)-N-(4-(3,3-dimethylureido)benzyl)-1,7-dimethyl-5-(5-(1-methyl-1H-imidazol-2-yl)pyridin-2-yl)-4,5,6,7-tetrahydro-1H-pyrazolo[4,3-c]pyridine-3-carboxamide]",16,,"IC50 [1, 6]: 246 nM"
"Cc1ccc(-c2ccc(CNC(=O)c3nn(C(C)C)c4c3CN(c3ccc(C(=O)N(C)C)cc3)C[C@@H]4C)cc2)nn1 [Example 727, (S)-5-(4-(dimethylcarbamoyl)phenyl)-1-isopropyl-7-methyl-N-(4-(6-methylpyridazin-3-yl)benzyl)-4,5,6,7-tetrahydro-1H-pyrazolo[4,3-c]pyridine-3-carboxamide]",11,,"IC50 ([1]; Homo sapiens, 48 h, human whole blood, IL-13 10 ng/mL): 383 nM"
"CC1CN(c2ccc(C(=O)N(C)C)cn2)Cc2c(C(=O)NCc3ccc(NC(=O)N(C)C)cc3)nn(C)c21 (single isomer, unassigned) [Example 8, rel-(R or S)-5-(5-(Dimethylcarbamoyl)pyridin-2-yl)-N-(4-(3,3-dimethylureido)benzyl)-1,7-dimethyl-4,5,6,7-tetrahydro-1H-pyrazolo[4,3-c]pyridine-3-carboxamide]",,,"EC50 (STAT6; [4]): 3 nM; IC50 [1, 7]: 14 nM"
"CN(C)C(=O)Nc1ccc(CNC(=O)c2nn(C3CC3)c3c2CN(c2ccc(-c4nccn4C)cn2)CC3)cc1 [Example 46, 1-cyclopropyl-N-(4-(3,3-dimethylureido)benzyl)-5-(5-(1-methyl-1H-imidazol-2-yl)pyridin-2-yl)-4,5,6,7-tetrahydro-1H-pyrazolo[4,3-c]pyridine-3-carboxamide]",,,"EC50 (STAT6; [4]): 9 nM; IC50 [1, 5]: 110 nM"
"CC(C)n1nc(C(=O)NCc2ccc(-c3ncc[nH]3)cc2)c2c1[C@@H](C)CN(c1ncc(N3CCCC3=O)cn1)C2 [Example 487, (S)-N-(4-(1H-imidazol-2-yl)benzyl)-1-isopropyl-7-methyl-5-(5-(2-oxopyrrolidin-1-yl)pyrimidin-2-yl)-4,5,6,7-tetrahydro-1H-pyrazolo[4,3-c]pyridine-3-carboxamide]",2,16,
"CCn1nc(C(=O)NCc2ccc(NC(=O)N(C)C)cc2)c2c1C(C(F)(F)F)CN(c1ccc(C(=O)N(C)C)cn1)C2 (single isomer, unassigned) [Example 303, rel-(R or S)-5-(5-(dimethylcarbamoyl)pyridin-2-yl)-N-(4-(3,3-dimethylureido)benzyl)-1-ethyl-7-(trifluoromethyl)-4,5,6,7-tetrahydro-1H-pyrazolo[4,3-c]pyridine-3-carboxamide]",22,,"IC50 [1, 6]: 334 nM"
"CC(C)n1nc(C(=O)NCc2ccc(NC(=O)N(C)C)cc2)c2c1CCN(c1ccc(C3CCOC3)cn1)C2 (racemic) [Example 345, rac-(R)-N-(4-(3,3-dimethylureido)benzyl)-1-isopropyl-5-(5-(tetrahydrofuran-3-yl)pyridin-2-yl)-4,5,6,7-tetrahydro-1H-pyrazolo[4,3-c]pyridine-3-carboxamide]",> 2630,> 30000,
"CCn1nc(C(=O)NCc2ccc(NC(=O)N(C)C)cc2)c2c1CCN(c1ccc(C(=O)N(C)C)cn1)C2 [Example 3, 5-(5-(Dimethylcarbamoyl)pyridin-2-yl)-N-(4-(3,3-dimethylureido)benzyl)-1-ethyl-4,5,6,7-tetrahydro-1H-pyrazolo[4,3-c]pyridine-3-carboxamide]",,,"EC50 (STAT6; [4]): 10 nM; IC50 [1, 5]: 104 nM"
"CN(C)C(=O)Nc1ccc(CNC(=O)c2nn(C)c3c2CN(c2ccc(C(=O)N(C)C)cn2)C2(CC2)C3)cc1 [Example 400, 5′-(5-(dimethylcarbamoyl)pyridin-2-yl)-N-(4-(3,3-dimethylureido)benzyl)-1′-methyl-1′,4′,5′,7′-tetrahydrospiro[cyclopropane-1,6′-pyrazolo[4,3-c]pyridine]-3′-carboxamide]",1040,2570,
"CC(C)n1nc(C(=O)NCc2ccc(NC(=O)N(C)C)cc2)c2c1CCN(c1ccc(C3CCCCO3)cn1)C2 (single isomer, unassigned) [Example 394, rel-(R or S)-N-(4-(3,3-dimethylureido)benzyl)-1-isopropyl-5-(5-(tetrahydro-2H-pyran-2-yl)pyridin-2-yl)-4,5,6,7-tetrahydro-1H-pyrazolo[4,3-c]pyridine-3-carboxamide]",> 7660,,"IC50 [1, 6]: > 30000 nM"
"CNC(=O)c1ccc(CNC(=O)c2nn(C(C)C)c3c2CN(c2ccc(N4CCCC4=O)cn2)C[C@@H]3C)cc1 [Example 478, (S)-1-isopropyl-7-methyl-N-(4-(methylcarbamoyl)benzyl)-5-(5-(2-oxopyrrolidin-1-yl)pyridin-2-yl)-4,5,6,7-tetrahydro-1H-pyrazolo[4,3-c]pyridine-3-carboxamide]",2,17,
"CC(C)n1nc(C(=O)NCc2ccc(NC(=O)N(C)C)cc2)c2c1CCN(c1ccc(C3CCCCO3)cn1)C2 (racemic) [Example 339, rac-(R)-N-(4-(3,3-dimethylureido)benzyl)-1-isopropyl-5-(5-(tetrahydro-2H-pyran-2-yl)pyridin-2-yl)-4,5,6,7-tetrahydro-1H-pyrazolo[4,3-c]pyridine-3-carboxamide]",6550,> 23100,
"CCn1nc(C(=O)NCc2ccc(C(N)=O)cc2)c2c1[C@@H](C)CN(c1ccc(N3CCCC3=O)cn1)C2 [Example 389, (S)-N-(4-carbamoylbenzyl)-1-ethyl-7-methyl-5-(5-(2-oxopyrrolidin-1-yl)pyridin-2-yl)-4,5,6,7-tetrahydro-1H-pyrazolo[4,3-c]pyridine-3-carboxamide]",6,17,
"CCC1CN(c2ccc(C(=O)N(C)C)cn2)Cc2c(C(=O)NCc3ccc(NC(=O)N(C)C)cc3)nn(C)c21 (single isomer, unassigned) [Example 58, rel-(R or S)-5-(5-(Dimethylcarbamoyl)pyridin-2-yl)-N-(4-(3,3-dimethylureido)benzyl)-7-ethyl-1-methyl-4,5,6,7-tetrahydro-1H-pyrazolo[4,3-c]pyridine-3-carboxamide]",,,"EC50 (STAT6; [4]): 24 nM; IC50 [1, 7]: 170 nM"
"CNC(=O)c1ccc(CNC(=O)c2nn(C(C)C)c3c2CN(c2ccc(C(=O)N(C)C)cn2)CC3C(F)(F)F)cc1 (single isomer, unassigned) [Example 356, rel-(R or S)-5-(5-(dimethylcarbamoyl)pyridin-2-yl)-1-isopropyl-N-(4-(methylcarbamoyl)benzyl)-7-(trifluoromethyl)-4,5,6,7-tetrahydro-1H-pyrazolo[4,3-c]pyridine-3-carboxamide]",246,,"IC50 [1, 6]: 3310 nM"
